How the values were obtained:
[1] = Measurement of blood glucose level in rat STZ-induced diabetes model; assay type: in vivo; settings: mean ± SE
Method: (§1) Compound 9 (50 mg/mL) was diluted with water for injection to obtain a 1 mg/mL administration specimen. For the specimens to be administered at 0.1 mg/mL and 0.01 mg/mL, the specimen to be administered at 1 mg/mL was diluted stepwise with water for injection. Each administration specimen was divided into PP disposable tubes every day and stored in a storehouse (freezer: MDF-MU339H-PJ, PHC Corporation) under the condition of freezing (−30° C. to −20° C., measured value: −26.4 to −24.5° C.). Preparation was performed on the day before the start of administration.
(§2) Water for injection was added to and dissolved in Pregabalin taken out from the capsule to obtain 2 mg/mL. It was prepared before use.
(§3) • Animal species: rat (SPF) • Strain: Crl: CD (SD) • Date of animal acquisition, gender, age in weeks, number of animals acquired, and weight range after 1 day of acquisition • First and second courses: Apr. 6, 2022, male, 7 weeks old, 35 animals, 217 to 237 g • Third and fourth courses: Apr. 13, 2022, male, 7 weeks old, 35 animals, 216 to 235 g • Source: […].
(§4) • Dose volume: calculated at 2 mL/kg based on the body weight on the day of administration. • Number of times of administration: once • Day of administration: 7 days before the day of starting administration of the test substance.
(§5) • Dose volume: calculated at 1 mL/kg based on the body weight on the day of administration. • Number of times of administration: 9 times • Interval of administration: once every 3 days (evaluation was performed on the day after administration) • Day of starting administration: day 8 of STZ administration (day of STZ administration is counted as day 1).
(§6) • Dose volume: calculated at 10 mL/kg based on the body weight on the day of administration. • Number of times of administration: Administration was performed once on the day of evaluation of neuropathic pain, twice in total, and on the other days of administration, a vehicle for a control substance (water for injection) was orally administered.
On days 7 and 35 of STZ administration, about 50 μL of blood was collected from the tail vein using a winged injection needle (Terumo Corporation) equipped with a heparinized capillary (DRUMMOND […]).
The blood obtained above was centrifuged [centrifugal conditions: 4° C., 3,000 rpm (×2,150 g), 15 min] with a centrifuge (CF 9RX, Hitachi Koki Co., Ltd.) to obtain plasma. Blood glucose levels of a part of plasma obtained by blood collection on day 7 and day 35 after STZ administration were measured by hexokinase G-6 PDH method (L-type Wako Glu2, FUJIFILM Wako Pure Chemical Corporation) using a biochemical automatic analyzer (AU480, Beckman Coulter, Inc.). […] The plasma after the measurement was discarded.
(§7) The mean and standard error of each group were calculated for the 50% withdrawal threshold, body weight, and blood glucose level.
(§8) The body weight was an integer.
(§9) No significant difference test of body weight and blood glucose levels was performed.

[2] = Body weight measurement in rat STZ-induced diabetes model; assay type: in vivo; settings: mean ± SE, in g (unit assumed)
Method: as §1, §2, §3, §4, §5, §6
• Measurement was performed every day after the day of STZ administration.
as §7, §8, §9

## CC[C@@]1(C)Oc2cc(ccc2O)C[C@H](NC)C(=O)N[C@@H](C(C)C)C(=O)N[C@@H]1C(=O)N[C@@H](CC(=O)O)C(=O)O [Compound 9]
[1]; 0.01 mg/kg iv group, day 7 of STZ administration (before start of dosing)
  Blood glucose level, Glu: 581.8 ± 18.5 mg/dL
[1]; 0.01 mg/kg iv, day 35 of STZ administration
  Blood glucose level, Glu: 623.6 ± 22.0 mg/dL
[1]; 0.1 mg/kg iv group, day 7 of STZ administration (before start of dosing)
  Blood glucose level, Glu: 576.3 ± 15.5 mg/dL
[1]; 0.1 mg/kg iv, day 35 of STZ administration
  Blood glucose level, Glu: 608.4 ± 32.7 mg/dL
[1]; 1 mg/kg iv group, day 7 of STZ administration (before start of dosing)
  Blood glucose level, Glu: 562.7 ± 14.7 mg/dL
[1]; 1 mg/kg iv, day 35 of STZ administration
  Blood glucose level, Glu: 605.6 ± 18.9 mg/dL
[2]; 0.01 mg/kg iv, day 1 of STZ administration
  Body weight: 295 ± 5
[2]; 0.01 mg/kg iv, day 2 of STZ administration
  Body weight: 281 ± 4
[2]; 0.01 mg/kg iv, day 3 of STZ administration
  Body weight: 277 ± 4
[2]; 0.01 mg/kg iv, day 4 of STZ administration
  Body weight: 280 ± 5
[2]; 0.01 mg/kg iv, day 5 of STZ administration
  Body weight: 282 ± 5
[2]; 0.01 mg/kg iv, day 6 of STZ administration
  Body weight: 287 ± 5
[2]; 0.01 mg/kg iv, day 7 of STZ administration
  Body weight: 291 ± 5
[2]; 0.01 mg/kg iv, day 8 of STZ administration
  Body weight: 290 ± 6
[2]; 0.01 mg/kg iv, day 9 of STZ administration
  Body weight: 292 ± 5
[2]; 0.01 mg/kg iv, day 10 of STZ administration
  Body weight: 297 ± 6
[2]; 0.01 mg/kg iv, day 11 of STZ administration
  Body weight: 298 ± 6
[2]; 0.01 mg/kg iv, day 12 of STZ administration
  Body weight: 302 ± 7
[2]; 0.01 mg/kg iv, day 13 of STZ administration
  Body weight: 304 ± 6
[2]; 0.01 mg/kg iv, day 14 of STZ administration
  Body weight: 306 ± 7
[2]; 0.01 mg/kg iv, day 15 of STZ administration
  Body weight: 306 ± 8
[2]; 0.01 mg/kg iv, day 16 of STZ administration
  Body weight: 307 ± 8
[2]; 0.01 mg/kg iv, day 17 of STZ administration
  Body weight: 309 ± 8
[2]; 0.01 mg/kg iv, day 18 of STZ administration
  Body weight: 311 ± 8
[2]; 0.01 mg/kg iv, day 19 of STZ administration
  Body weight: 309 ± 8
[2]; 0.01 mg/kg iv, day 20 of STZ administration
  Body weight: 312 ± 8
[2]; 0.01 mg/kg iv, day 21 of STZ administration
  Body weight: 312 ± 8
[2]; 0.01 mg/kg iv, day 22 of STZ administration
  Body weight: 311 ± 9
[2]; 0.01 mg/kg iv, day 23 of STZ administration
  Body weight: 312 ± 9
[2]; 0.01 mg/kg iv, day 24 of STZ administration
  Body weight: 310 ± 9
[2]; 0.01 mg/kg iv, day 25 of STZ administration
  Body weight: 312 ± 10
[2]; 0.01 mg/kg iv, day 26 of STZ administration
  Body weight: 315 ± 10
[2]; 0.01 mg/kg iv, day 27 of STZ administration
  Body weight: 308 ± 10
[2]; 0.01 mg/kg iv, day 28 of STZ administration
  Body weight: 312 ± 10
[2]; 0.01 mg/kg iv, day 29 of STZ administration
  Body weight: 311 ± 11
[2]; 0.01 mg/kg iv, day 30 of STZ administration
  Body weight: 313 ± 11
[2]; 0.01 mg/kg iv, day 31 of STZ administration
  Body weight: 309 ± 11
[2]; 0.01 mg/kg iv, day 32 of STZ administration
  Body weight: 310 ± 12
[2]; 0.01 mg/kg iv, day 33 of STZ administration
  Body weight: 308 ± 12
[2]; 0.01 mg/kg iv, day 34 of STZ administration
  Body weight: 313 ± 12
[2]; 0.1 mg/kg iv, day 1 of STZ administration
  Body weight: 293 ± 4
[2]; 0.1 mg/kg iv, day 2 of STZ administration
  Body weight: 279 ± 5
[2]; 0.1 mg/kg iv, day 3 of STZ administration
  Body weight: 275 ± 5
[2]; 0.1 mg/kg iv, day 4 of STZ administration
  Body weight: 277 ± 6
[2]; 0.1 mg/kg iv, day 5 of STZ administration
  Body weight: 280 ± 5
[2]; 0.1 mg/kg iv, day 6 of STZ administration
  Body weight: 285 ± 5
[2]; 0.1 mg/kg iv, day 7 of STZ administration
  Body weight: 289 ± 5
[2]; 0.1 mg/kg iv, day 8 of STZ administration
  Body weight: 287 ± 5
[2]; 0.1 mg/kg iv, day 9 of STZ administration
  Body weight: 292 ± 5
[2]; 0.1 mg/kg iv, day 10 of STZ administration
  Body weight: 295 ± 6
[2]; 0.1 mg/kg iv, day 11 of STZ administration
  Body weight: 298 ± 6
[2]; 0.1 mg/kg iv, day 12 of STZ administration
  Body weight: 300 ± 4
[2]; 0.1 mg/kg iv, day 13 of STZ administration
  Body weight: 303 ± 6
[2]; 0.1 mg/kg iv, day 14 of STZ administration
  Body weight: 305 ± 5
[2]; 0.1 mg/kg iv, day 15 of STZ administration
  Body weight: 300 ± 6
[2]; 0.1 mg/kg iv, day 16 of STZ administration
  Body weight: 302 ± 7
[2]; 0.1 mg/kg iv, day 17 of STZ administration
  Body weight: 307 ± 7
[2]; 0.1 mg/kg iv, day 18 of STZ administration
  Body weight: 305 ± 7
[2]; 0.1 mg/kg iv, day 19 of STZ administration
  Body weight: 310 ± 8
[2]; 0.1 mg/kg iv, day 20 of STZ administration
  Body weight: 312 ± 8
[2]; 0.1 mg/kg iv, day 21 of STZ administration
  Body weight: 307 ± 7
[2]; 0.1 mg/kg iv, day 22 of STZ administration
  Body weight: 311 ± 7
[2]; 0.1 mg/kg iv, day 23 of STZ administration
  Body weight: 314 ± 8
[2]; 0.1 mg/kg iv, day 24 of STZ administration
  Body weight: 312 ± 7
[2]; 0.1 mg/kg iv, day 25 of STZ administration
  Body weight: 312 ± 7
[2]; 0.1 mg/kg iv, day 26 of STZ administration
  Body weight: 312 ± 7
[2]; 0.1 mg/kg iv, day 27 of STZ administration
  Body weight: 310 ± 8
[2]; 0.1 mg/kg iv, day 28 of STZ administration
  Body weight: 315 ± 8
[2]; 0.1 mg/kg iv, day 29 of STZ administration
  Body weight: 311 ± 7
[2]; 0.1 mg/kg iv, day 30 of STZ administration
  Body weight: 313 ± 8
[2]; 0.1 mg/kg iv, day 31 of STZ administration
  Body weight: 310 ± 8
[2]; 0.1 mg/kg iv, day 32 of STZ administration
  Body weight: 312 ± 8
[2]; 0.1 mg/kg iv, day 33 of STZ administration
  Body weight: 308 ± 8
[2]; 1 mg/kg iv, day 1 of STZ administration
  Body weight: 293 ± 5
[2]; 1 mg/kg iv, day 2 of STZ administration
  Body weight: 282 ± 6
[2]; 1 mg/kg iv, day 3 of STZ administration
  Body weight: 277 ± 4
[2]; 1 mg/kg iv, day 4 of STZ administration
  Body weight: 279 ± 4
[2]; 1 mg/kg iv, day 5 of STZ administration
  Body weight: 284 ± 5
[2]; 1 mg/kg iv, day 6 of STZ administration
  Body weight: 286 ± 5
[2]; 1 mg/kg iv, day 7 of STZ administration
  Body weight: 291 ± 5
[2]; 1 mg/kg iv, day 8 of STZ administration
  Body weight: 290 ± 5
[2]; 1 mg/kg iv, day 9 of STZ administration
  Body weight: 291 ± 5
[2]; 1 mg/kg iv, day 10 of STZ administration
  Body weight: 294 ± 6
[2]; 1 mg/kg iv, day 11 of STZ administration
  Body weight: 300 ± 7
[2]; 1 mg/kg iv, day 12 of STZ administration
  Body weight: 299 ± 6
[2]; 1 mg/kg iv, day 13 of STZ administration
  Body weight: 303 ± 6
[2]; 1 mg/kg iv, day 14 of STZ administration
  Body weight: 302 ± 6
[2]; 1 mg/kg iv, day 15 of STZ administration
  Body weight: 303 ± 7
[2]; 1 mg/kg iv, day 16 of STZ administration
  Body weight: 303 ± 8
[2]; 1 mg/kg iv, day 17 of STZ administration
  Body weight: 305 ± 8
[2]; 1 mg/kg iv, day 18 of STZ administration
  Body weight: 306 ± 7
[2]; 1 mg/kg iv, day 19 of STZ administration
  Body weight: 307 ± 7
[2]; 1 mg/kg iv, day 20 of STZ administration
  Body weight: 305 ± 9
[2]; 1 mg/kg iv, day 21 of STZ administration
  Body weight: 304 ± 8
[2]; 1 mg/kg iv, day 22 of STZ administration
  Body weight: 309 ± 8
[2]; 1 mg/kg iv, day 23 of STZ administration
  Body weight: 309 ± 9
[2]; 1 mg/kg iv, day 24 of STZ administration
  Body weight: 311 ± 9
[2]; 1 mg/kg iv, day 25 of STZ administration
  Body weight: 309 ± 9
[2]; 1 mg/kg iv, day 26 of STZ administration
  Body weight: 311 ± 9
[2]; 1 mg/kg iv, day 27 of STZ administration
  Body weight: 308 ± 9
[2]; 1 mg/kg iv, day 28 of STZ administration
  Body weight: 309 ± 9
[2]; 1 mg/kg iv, day 29 of STZ administration
  Body weight: 310 ± 9
[2]; 1 mg/kg iv, day 30 of STZ administration
  Body weight: 308 ± 10
[2]; 1 mg/kg iv, day 31 of STZ administration
  Body weight: 306 ± 9
[2]; 1 mg/kg iv, day 32 of STZ administration
  Body weight: 309 ± 10
[2]; 1 mg/kg iv, day 33 of STZ administration
  Body weight: 308 ± 10

Source: patent US20260158102A1, “CYCLIC PEPTIDE DERIVATIVE COMPOSITION FOR TREATING OR PREVENTING NEUROPATHIC PAIN AND/OR INFLAMMATORY PAIN” (DKS Co. Ltd., priority 2022, published 2026)
